The values that follow come from ChEMBL document CHEMBL1275542, “Characterization of TolC efflux pump proteins from Pasteurella multocida” (2008).

In brackets after ≈: the same amount, converted by molar mass.

Holding throughout (type): functional
Assay [1] concerns Pasteurella multocida. As to the kind of experiment: Antibacterial activity against Pasteurella multocida pm1980 after 24 hrs by broth dilution method.
For assay [2], the system named is Pasteurella multocida. As to the kind of experiment: Antibacterial activity against TolC deficient Pasteurella multocida pm1980 after 24 hrs by broth dilution method.
For assay [3], the system named is Pasteurella multocida. Description: Ratio of MIC for Pasteurella multocida AL435 to MIC for TolC deficient Pasteurella multocida pm1980.
In assay [4] the test system is Pasteurella multocida. As to the kind of experiment: Antibacterial activity against TolC deficient Pasteurella multocida pm0527 after 24 hrs by broth dilution method.
The subject of assay [5] is Pasteurella multocida. Description: Antibacterial activity against Pasteurella multocida pm0527 after 24 hrs by broth dilution method.
For assay [6], the system named is Pasteurella multocida. Description: Antibacterial activity against Pasteurella multocida AL435 after 24 hrs by broth dilution method.
Assay [7] relates to Pasteurella multocida. As to the kind of experiment: Ratio of MIC for Pasteurella multocida AL435 to MIC for TolC deficient Pasteurella multocida pm0527.

Turning to `CO[C@H]1/C=C/O[C@@]2(C)Oc3c(C)c(O)c4c(O)c(c(/C=N/N5CCN(C)CC5)c(O)c4c3C2=O)NC(=O)/C(C)=C\C=C\[C@H](C)[C@H](O)[C@@H](C)[C@@H](O)[C@@H](C)[C@H](OC(C)=O)[C@@H]1C` [RIFAMPIN], the MIC is 0.78 µg/mL (≈ 0.948 µM) against Pasteurella multocida [1] (pm1980, 24 h); 0.78 µg/mL (≈ 0.948 µM) in the assay with Pasteurella multocida [2] (pm1980, 24 h); 0.1 µg/mL (≈ 0.122 µM) with Pasteurella multocida [4] (pm0527, 24 h); 0.2 µg/mL (≈ 0.243 µM) against Pasteurella multocida [5] (pm0527, 24 h); 50 µg/mL (≈ 60.8 µM) in the assay on Pasteurella multocida [6] (AL435, 24 h). Further, the Ratio was found to be 64 in the assay with Pasteurella multocida [3] and 512 with Pasteurella multocida [7].
Take `O=C(N[C@H](CO)[C@H](O)c1ccc([N+](=O)[O-])cc1)C(Cl)Cl` [CHLORAMPHENICOL]: the MIC against Pasteurella multocida [1] (pm1980, 24 h) is 1 µg/mL (≈ 3.09 µM); with Pasteurella multocida [2] (pm1980, 24 h), 1 µg/mL (≈ 3.09 µM); in the assay with Pasteurella multocida [4] (pm0527, 24 h) it was 0.5 µg/mL (≈ 1.55 µM); in the assay with Pasteurella multocida [5] (pm0527, 24 h) it was 1 µg/mL (≈ 3.09 µM); in the assay with Pasteurella multocida [6] (AL435, 24 h), 1 µg/mL (≈ 3.09 µM). The Ratio in the assay with Pasteurella multocida [3] turned out to be 1; in the assay on Pasteurella multocida [7] it was 2.
Take SPIRAMYCIN: the MIC against Pasteurella multocida [1] stood at 25 µg/mL; against Pasteurella multocida [2], 25 µg/mL; against Pasteurella multocida [4] it was 12.5 µg/mL; with Pasteurella multocida [5] it was 25 µg/mL; against Pasteurella multocida [6], 25 µg/mL. Further, the Ratio was determined as 1 in the assay with Pasteurella multocida [3] and 2 in the assay on Pasteurella multocida [7].
For the molecule `CCn1cc(C(=O)O)c(=O)c2ccc(C)nc21` [NALIDIXIC ACID], the minimal inhibitory concentration (MIC) with Pasteurella multocida [1] (pm1980, 24 h) was 12.5 µg/mL (≈ 53.8 µM); in the assay on Pasteurella multocida [2] (pm1980, 24 h), 25 µg/mL (≈ 108 µM); in the assay with Pasteurella multocida [4] (pm0527, 24 h), 25 µg/mL (≈ 108 µM); in the assay with Pasteurella multocida [5] (pm0527, 24 h), 25 µg/mL (≈ 108 µM); in the assay with Pasteurella multocida [6] (AL435, 24 h), 25 µg/mL (≈ 108 µM). Further, the Ratio in the assay with Pasteurella multocida [3] and in the assay with Pasteurella multocida [7] was 1 in each case.
As to `CC(C)(O/N=C(\C(=O)N[C@@H]1C(=O)N2C(C(=O)[O-])=C(C[n+]3ccccc3)CS[C@H]12)c1csc(N)n1)C(=O)O` [CEFTAZIDIME], the minimal inhibitory concentration (MIC) with Pasteurella multocida [1] (pm1980, 24 h) is 31.2 µg/mL (≈ 57.1 µM); in the assay with Pasteurella multocida [2] (pm1980, 24 h), 31.2 µg/mL (≈ 57.1 µM); with Pasteurella multocida [4] (pm0527, 24 h), 15.6 µg/mL (≈ 28.5 µM); against Pasteurella multocida [5] (pm0527, 24 h) it was 7.8 µg/mL (≈ 14.3 µM); with Pasteurella multocida [6] (AL435, 24 h), 250 µg/mL (≈ 457 µM). Also, the results for the Ratio in the assay on Pasteurella multocida [3] and with Pasteurella multocida [7] were 8 and 16, respectively.
With `CCCCc1ccc(C(=O)O)nc1` [FUSARIC ACID], the MIC with Pasteurella multocida [1] (pm1980, 24 h) was found to be 100 µg/mL (≈ 558 µM); with Pasteurella multocida [2] (pm1980, 24 h), 50 µg/mL (≈ 279 µM); against Pasteurella multocida [4] (pm0527, 24 h) it was 50 µg/mL (≈ 279 µM); against Pasteurella multocida [5] (pm0527, 24 h), 50 µg/mL (≈ 279 µM); against Pasteurella multocida [6] (AL435, 24 h) it was 100 µg/mL (≈ 558 µM). The Ratio in the assay on Pasteurella multocida [3] and with Pasteurella multocida [7] was 2 in each case.
Regarding `C[C@H](CCC(=O)O)[C@H]1CC[C@H]2[C@@H]3CC[C@@H]4C[C@H](O)CC[C@]4(C)[C@H]3C[C@H](O)[C@]12C` [DEOXYCHOLIC ACID], the minimal inhibitory concentration (MIC) against Pasteurella multocida [1] (pm1980, 24 h) was found to be 625 µg/mL (≈ 1590 µM); against Pasteurella multocida [2] (pm1980, 24 h), 625 µg/mL (≈ 1590 µM); in the assay on Pasteurella multocida [4] (pm0527, 24 h), 625 µg/mL (≈ 1590 µM); in the assay on Pasteurella multocida [5] (pm0527, 24 h), 312 µg/mL (≈ 796 µM); against Pasteurella multocida [6] (AL435, 24 h), 625 µg/mL (≈ 1590 µM). Besides, the Ratio in the assay on Pasteurella multocida [3] and with Pasteurella multocida [7] was 1 throughout.
As for `Nc1ccc(S(=O)(=O)Nc2nccs2)cc1` [SULFATHIAZOLE], the MIC worked out at 2500 µg/mL (≈ 9790 µM) against Pasteurella multocida [1] (pm1980, 24 h); 2500 µg/mL (≈ 9790 µM) in the assay on Pasteurella multocida [2] (pm1980, 24 h); 625 µg/mL (≈ 2450 µM) in the assay on Pasteurella multocida [4] (pm0527, 24 h); 1250 µg/mL (≈ 4900 µM) against Pasteurella multocida [5] (pm0527, 24 h); 2500 µg/mL (≈ 9790 µM) against Pasteurella multocida [6] (AL435, 24 h). For the same molecule, the Ratio in the assay on Pasteurella multocida [3] worked out at 1; with Pasteurella multocida [7], 4.
In the case of `C[C@@H]1C[C@@H]([C@H](O)CC2CC(=O)NC(=O)C2)C(=O)[C@@H](C)C1` [CYCLOHEXIMIDE], the MIC is 500 µg/mL (≈ 1780 µM) with Pasteurella multocida [1] (pm1980, 24 h); 500 µg/mL (≈ 1780 µM) in the assay with Pasteurella multocida [2] (pm1980, 24 h); 250 µg/mL (≈ 889 µM) in the assay on Pasteurella multocida [4] (pm0527, 24 h); 500 µg/mL (≈ 1780 µM) in the assay on Pasteurella multocida [5] (pm0527, 24 h); 500 µg/mL (≈ 1780 µM) in the assay on Pasteurella multocida [6] (AL435, 24 h). The results for the Ratio in the assay on Pasteurella multocida [3] and in the assay on Pasteurella multocida [7] were 1 and 2, respectively.
For the molecule NEOMYCIN SULFATE, the minimum inhibitory concentration (MIC) against Pasteurella multocida [1] was 500 µg/mL; against Pasteurella multocida [2], 1000 µg/mL; with Pasteurella multocida [4] it was 125 µg/mL; against Pasteurella multocida [5], 125 µg/mL; in the assay with Pasteurella multocida [6] it was 125 µg/mL. Moreover, the Ratio came out at 0.125 with Pasteurella multocida [3] and 1 in the assay on Pasteurella multocida [7].
In the case of `O[C@@H](CS)[C@@H](O)CS` [DITHIOTHREITOL], the MIC in the assay on Pasteurella multocida [1] (pm1980, 24 h) is 4000 µg/mL (≈ 25900 µM); with Pasteurella multocida [2] (pm1980, 24 h), 2000 µg/mL (≈ 13000 µM); with Pasteurella multocida [4] (pm0527, 24 h), 2000 µg/mL (≈ 13000 µM); against Pasteurella multocida [5] (pm0527, 24 h) it was 2000 µg/mL (≈ 13000 µM); in the assay on Pasteurella multocida [6] (AL435, 24 h), 4000 µg/mL (≈ 25900 µM). The Ratio in the assay on Pasteurella multocida [3] and in the assay on Pasteurella multocida [7] was 2 throughout.
